For one test, the target named is T1, CBP (Homo sapiens, UniProt Q92793).
T1 construct: endogenous in cells; host or cells: 22Rv1 (ATCC CRL-2505) human prostate cancer cells
The test is described as follows: CBP degradation in 22Rv1 cells (5 h). As to conditions: 22Rv1 cells, 5 h; for Dmax: 22Rv1, 5 h, read-out: CBP Degradation (22Rv1, 5 h) DCmax. It is filed as cell-based. An excerpt:
Biological Assays. […] Cells with 3-8 passages after purchase were used in experiments.

The next test has as its system HL60. As to the kind of experiment: Cell growth inhibition in HL60. The format is cell-based. To be noted: read-out: Cell Growth Inhibition (IC50) HL60.
Another test deals with 22Rv1 cells. As to the kind of experiment: Cell growth inhibition assay (CellTiter-Glo) in 22Rv1. The format is cell-based, human. As to conditions: 22Rv1 cells, 96 h incubation, read-out: Cell Growth Inhibition (IC50) 22Rv1. The protocol:
Biological Assays. CBP/p300 degradation activity and cell growth inhibition were evaluated in the human prostate cancer cell line 22Rv1 (ATCC© CRL-2505™) purchased from the American Type Culture Collection (ATCC), Manassas, VA, and maintained and cultured in Dulbecco's Modified Eagle's medium (DMEM) containing 10% fetal bovine serum, 1 unit/ml of penicillin and 1 μg/ml of streptomycin. Cells with 3-8 passages after purchase were used in experiments.
Cell Growth Inhibition Assay Protocol. 22RV1 cells were seeded at a concentration of 4000 cells/well in 100 μl culture medium and 2 μl of test compound (final concentration start from 10 μM and 3 times dilution) into 96 well microplates (Corning 3903). The cell cultures were incubated for 96 h at +37° C. and 5% CO2. The plate and its contents were equilibrated to room temperature for approximately 30 minutes. 100 μl of CellTiter-Glo® 2.0 Reagent equal to the volume of cell culture medium present was added in each well. The contents were mixed for 2 minutes on an orbital shaker. The plate was allowed to incubate at room temperature for 10 minutes. The luminescence was recorded. The data was analyzed by Prism GraphPad 8.
In general terms: ATP-based viability assays read luminescence as a measure of living cells.

Setting [1] is: Homo sapiens, HL-60, HL60 cells.

Where two headings read alike, the source gives them in different places.

The DC50 is the midpoint of the concentration-degradation curve. As usually defined, the IC50 is the concentration at which inhibition is half-maximal.

T1 sequence (Q92793 whole entry): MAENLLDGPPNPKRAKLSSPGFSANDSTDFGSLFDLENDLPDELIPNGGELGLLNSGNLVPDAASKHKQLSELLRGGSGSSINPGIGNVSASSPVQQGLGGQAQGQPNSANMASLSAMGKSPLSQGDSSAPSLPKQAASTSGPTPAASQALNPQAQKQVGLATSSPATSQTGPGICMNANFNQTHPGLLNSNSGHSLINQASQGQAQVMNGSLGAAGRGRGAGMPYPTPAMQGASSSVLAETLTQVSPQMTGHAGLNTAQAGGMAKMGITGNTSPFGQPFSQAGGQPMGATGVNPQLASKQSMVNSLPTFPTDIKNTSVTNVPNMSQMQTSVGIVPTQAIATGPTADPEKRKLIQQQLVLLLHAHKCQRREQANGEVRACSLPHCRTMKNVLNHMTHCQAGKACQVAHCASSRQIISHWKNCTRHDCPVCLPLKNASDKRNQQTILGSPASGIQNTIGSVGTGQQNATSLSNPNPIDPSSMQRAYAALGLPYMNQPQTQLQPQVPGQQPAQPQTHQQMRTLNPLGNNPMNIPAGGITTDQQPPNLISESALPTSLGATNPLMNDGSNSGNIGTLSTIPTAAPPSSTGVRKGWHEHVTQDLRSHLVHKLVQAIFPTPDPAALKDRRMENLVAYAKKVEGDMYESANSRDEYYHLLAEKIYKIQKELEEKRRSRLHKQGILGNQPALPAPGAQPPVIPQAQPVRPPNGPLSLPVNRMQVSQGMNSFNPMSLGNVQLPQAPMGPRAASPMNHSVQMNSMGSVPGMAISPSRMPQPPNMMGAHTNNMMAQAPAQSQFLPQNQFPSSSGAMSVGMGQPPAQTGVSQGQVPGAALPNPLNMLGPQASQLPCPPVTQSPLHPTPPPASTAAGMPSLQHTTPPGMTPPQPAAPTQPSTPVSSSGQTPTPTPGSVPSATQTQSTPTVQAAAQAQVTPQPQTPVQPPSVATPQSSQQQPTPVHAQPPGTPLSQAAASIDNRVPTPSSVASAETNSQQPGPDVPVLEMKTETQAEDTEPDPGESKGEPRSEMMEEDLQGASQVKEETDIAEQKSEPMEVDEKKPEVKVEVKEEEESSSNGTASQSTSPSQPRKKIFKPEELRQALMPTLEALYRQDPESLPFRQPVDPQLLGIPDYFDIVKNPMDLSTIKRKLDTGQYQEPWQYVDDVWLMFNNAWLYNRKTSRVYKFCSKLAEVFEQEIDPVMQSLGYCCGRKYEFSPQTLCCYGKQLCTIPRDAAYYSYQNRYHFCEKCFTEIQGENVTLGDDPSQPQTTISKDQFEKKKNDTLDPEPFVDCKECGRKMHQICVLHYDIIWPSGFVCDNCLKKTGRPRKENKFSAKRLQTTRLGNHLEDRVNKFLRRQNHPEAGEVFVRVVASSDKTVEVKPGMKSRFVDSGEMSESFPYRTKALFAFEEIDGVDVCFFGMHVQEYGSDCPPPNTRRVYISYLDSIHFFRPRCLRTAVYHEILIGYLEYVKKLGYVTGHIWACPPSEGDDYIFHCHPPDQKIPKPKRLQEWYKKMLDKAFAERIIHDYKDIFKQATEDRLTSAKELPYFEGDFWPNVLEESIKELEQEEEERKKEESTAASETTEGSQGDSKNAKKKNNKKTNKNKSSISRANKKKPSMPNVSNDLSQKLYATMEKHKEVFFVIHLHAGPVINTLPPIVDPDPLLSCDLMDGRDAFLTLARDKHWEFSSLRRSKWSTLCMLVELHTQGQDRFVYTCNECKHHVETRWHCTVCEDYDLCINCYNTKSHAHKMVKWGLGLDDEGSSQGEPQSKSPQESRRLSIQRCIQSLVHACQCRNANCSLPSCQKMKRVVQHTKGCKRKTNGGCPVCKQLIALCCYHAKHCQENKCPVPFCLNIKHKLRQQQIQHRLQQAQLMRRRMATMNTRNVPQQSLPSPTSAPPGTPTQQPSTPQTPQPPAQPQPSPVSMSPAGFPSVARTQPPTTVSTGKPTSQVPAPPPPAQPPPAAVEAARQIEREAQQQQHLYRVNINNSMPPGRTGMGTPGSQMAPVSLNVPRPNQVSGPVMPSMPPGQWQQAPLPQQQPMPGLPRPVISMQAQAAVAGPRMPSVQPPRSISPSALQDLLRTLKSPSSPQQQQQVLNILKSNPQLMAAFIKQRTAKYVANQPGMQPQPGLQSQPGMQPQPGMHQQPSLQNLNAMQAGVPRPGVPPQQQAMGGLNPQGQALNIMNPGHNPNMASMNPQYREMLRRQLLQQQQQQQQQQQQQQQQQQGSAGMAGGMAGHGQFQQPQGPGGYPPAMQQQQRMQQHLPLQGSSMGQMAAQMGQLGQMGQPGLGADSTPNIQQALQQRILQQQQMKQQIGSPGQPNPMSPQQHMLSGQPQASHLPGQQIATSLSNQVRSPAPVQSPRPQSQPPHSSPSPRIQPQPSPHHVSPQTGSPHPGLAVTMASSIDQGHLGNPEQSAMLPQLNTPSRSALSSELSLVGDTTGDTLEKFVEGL

For `CC(=O)N1CCc2c(c(N3CCCc4cc(-c5cnn(C)c5)c(C(F)F)cc43)nn2C2CCC(CC(=O)N3Cc4cc5c(cc4C3)C(=O)N(C3CCC(=O)NC3=O)C5=O)CC2)C1` (stereo not drawn) [CP-027, 6-(2-(4-(5-acetyl-3-(7-(difluoromethyl)-6-(1-methyl-1H-pyrazol-4-yl)-3,4-dihydroquinolin-1(2H)-yl)-4,5,6,7-tetrahydro-1H-pyrazolo[4,3-c]pyridin-1-yl)cyclohexyl)acetyl)-2-(2,6-dioxopiperidin-3-yl)-6,7-dihydropyrrolo[3,4-f]isoindole-1,3(2H,5H)-dione], at CBP, the Dmax is less than 50% and the DC50 was greater than 1000 nM. The IC50 in the test with HL60 (setting [1]) was less than 1000 nM. Also, in the test on 22Rv1 cells (Homo sapiens, 22Rv1, 96 h), the IC50 is less than 10000 nM.
Turning to `CC(=O)N1CCc2c(c(N3CCCc4cc(-c5cnn(C)c5)c(C(F)F)cc43)nn2C2CCC(CC(=O)N3CCc4cc5c(cc4C3)C(=O)N(C3CCC(=O)NC3=O)C5=O)CC2)C1` (stereo not drawn) [CP-028, 6-(2-(4-(5-acetyl-3-(7-(difluoromethyl)-6-(1-methyl-1H-pyrazol-4-yl)-3,4-dihydroquinolin-1(2H)-yl)-4,5,6,7-tetrahydro-1H-pyrazolo[4,3-c]pyridin-1-yl)cyclohexyl)acetyl)-2-(2,6-dioxopiperidin-3-yl)-5,6,7,8-tetrahydro-1H-pyrrolo[3,4-g]isoquinoline-1,3(2H)-dione], on CBP, the Dmax was greater than 50% and the half-maximal degradation concentration (DC50) was less than 10 nM. In addition, the IC50 in the test on HL60 (setting [1]) was less than 100 nM. Moreover, the 50% inhibitory concentration (IC50) with 22Rv1 cells (Homo sapiens, 22Rv1, 96 h) is less than 1000 nM.
On to `CC(=O)N1CCc2c(c(N3CCCc4cc(-c5cnn(C)c5)c(C(F)F)cc43)nn2C[C@H]2CC[C@H](C(=O)N3Cc4cc5c(cc4C3)C(=O)N(C3CCC(=O)NC3=O)C5=O)CC2)C1` (stereo partly drawn) [CP-029, trans-6-(4-((5-acetyl-3-(7-(difluoromethyl)-6-(1-methyl-1H-pyrazol-4-yl)-3,4-dihydroquinolin-1(2H)-yl)-4,5,6,7-tetrahydro-1H-pyrazolo[4,3-c]pyridin-1-yl)methyl)cylcohexane-1-carbonyl)-2-(2,6-dioxopiperidin-3-yl)-6,7-dihydropyrrolo[3,4-f]isoindole-1,3(2H,5H)-dione], for which, on CBP, the Dmax is greater than 50% and the 50% degradation concentration (DC50) was less than 100 nM. In addition, the IC50 in the test with HL60 (setting [1]) was less than 10000 nM. Further, the IC50 in the test with 22Rv1 cells (Homo sapiens, 22Rv1, 96 h) was less than 10000 nM.
As for `CC(=O)N1CCc2c(c(N3CCCc4cc(-c5cnn(C)c5)c(C(F)F)cc43)nn2C[C@H]2CC[C@H](C(=O)N3CCc4cc5c(cc4C3)C(=O)N(C3CCC(=O)NC3=O)C5=O)CC2)C1` (stereo partly drawn) [CP-030, trans-6-(4-((5-acetyl-3-(7-(difluoromethyl)-6-(1-methyl-1H-pyrazol-4-yl)-3,4-dihydroquinolin-1(2H)-yl)-4,5,6,7-tetrahydro-1H-pyrazolo[4,3-c]pyridin-1-yl)methyl)cyclohexane-1-carbonyl)-2-(2,6-dioxopiperidin-3-yl)-5,6,7,8-tetrahydro-1H-pyrrolo[3,4-g]isoquinoline-1,3(2H)-dione], on CBP, the Dmax was less than 50% and the DC50 was greater than 1000 nM. Besides, the IC50 in the test on HL60 (setting [1]) was less than 1000 nM. For the same molecule, the IC50 in the test on 22Rv1 cells (Homo sapiens, 22Rv1, 96 h) is less than 10000 nM.
Regarding `CC(=O)N1CCc2c(c(N3CCCc4cc(-c5cnn(C)c5)c(C(F)F)cc43)nn2C[C@H]2CC[C@@H](C(=O)N3Cc4cc5c(cc4C3)C(=O)N(C3CCC(=O)NC3=O)C5=O)CC2)C1` (stereo partly drawn) [CP-031, cis-6-(4-((5-acetyl-3-(7-(difluoromethyl)-6-(1-methyl-1H-pyrazol-4-yl)-3,4-dihydroquinolin-1(2H)-yl)-4,5,6,7-tetrahydro-1H-pyrazolo[4,3-c]pyridin-1-yl)methyl)cyclohexane-1-carbonyl)-2-(2,6-dioxopiperidin-3-yl)-6,7-dihydropyrrolo[3,4-f]isoindole-1,3(2H,5H)-dione], at CBP, the Dmax was greater than 50% and the half-maximal degradation concentration (DC50) is less than 100 nM. Besides, the IC50 with HL60 (setting [1]) was less than 1000 nM. Also, the IC50 in the test with 22Rv1 cells (Homo sapiens, 22Rv1, 96 h) is less than 10000 nM.
Consider `CC(=O)N1CCc2c(c(N3CCCc4cc(-c5cnn(C)c5)c(C(F)F)cc43)nn2C[C@H]2CC[C@@H](C(=O)N3CCc4cc5c(cc4C3)C(=O)N(C3CCC(=O)NC3=O)C5=O)CC2)C1` (stereo partly drawn) [CP-032, cis-6-(4-((5-acetyl-3-(7-(difluoromethyl)-6-(1-methyl-1H-pyrazol-4-yl)-3,4-dihydroquinolin-1(2H)-yl)-4,5,6,- tetrahydro-1H-pyrazolo[4,3-c]pyridin-1-yl)methyl)cyclohexane-1-carbonyl)-2-(2,6-dioxopiperidin-3-yl)-5,6,7,8-tetrahydro-1H-pyrrolo[3,4-g]isoquinoline-1,3(2H)-dione], for which, on CBP, the Dmax is greater than 50% and the 50% degradation concentration (DC50) is less than 100 nM. In addition, the 50% inhibitory concentration (IC50) in the test with HL60 (setting [1]) was less than 1000 nM. In the test with 22Rv1 cells (Homo sapiens, 22Rv1, 96 h), the IC50 is less than 10000 nM.
With `CC(=O)N1CCc2c(c(N3CCCc4cc(-c5cnn(C)c5)c(C(F)F)cc43)nn2C2CCC(C(=O)N3Cc4cc5c(cc4C3)C(=O)N(C3CCC(=O)NC3=O)C5=O)CC2)C1` (stereo not drawn) [CP-033, 6-(4-(5-acetyl-3-(7-(difluoromethyl)-6-(1-methyl-1H-pyrazol-4-yl)-3,4-dihydroquinolin-1(2H)-yl)-4,5,6,7-tetrahydro-1H-pyrazolo[4,3-c]pyridin-1-yl)cyclohexane-1-carbonyl)-2-(2,6-dioxopiperidin-3-yl)-6,7-dihydropyrrolo[3,4-f]isoindole-1,3(2H,5H)-dione], at CBP, the Dmax is greater than 90% and the DC50 is less than 10 nM. The IC50 with HL60 (setting [1]) is less than 100 nM. In addition, in the test on 22Rv1 cells, the IC50 is less than 100 nM.
As to `CC(=O)N1CCc2c(c(N3CCCc4cc(-c5cnn(C)c5)c(C(F)F)cc43)nn2C2CCC(C(=O)N3Cc4cc5c(cc4C3)C(=O)N(C3CCC(=O)NC3=O)C5=O)CC2)C1` (stereo not drawn) [CP-034, 6-(4-(5-acetyl-3-(7-(difluoromethyl)-6-(1-methyl-1H-pyrazol-4-yl)-3,4-dihydroquinolin-1(2H)-yl)-4,5,6,7-tetrahydro-1H-pyrazolo[4,3-c]pyridin-1-yl)cyclohexane-1-carbonyl)-2-(2,6-dioxopiperidin-3-yl)-6,7-dihydropyrrolo[3,4-f]isoindole-1,3(2H,5H)-dione], on CBP, the “CBP Degradation (22Rv1, 5 h) DCmax” value is “+++ (>90% = +++)” and the DC50 was less than 10 nM. Moreover, the half-maximal inhibitory concentration (IC50) in the test on HL60 (HL60 cells) is less than 100 nM. Also, the IC50 in the test on 22Rv1 cells was less than 1000 nM.
With `CC(=O)N1CCc2c(c(N3CCCc4cc(-c5cnn(C)c5)c(C(F)F)cc43)nn2C2CCC(C(=O)N3CCc4cc5c(cc4C3)C(=O)N(C3CCC(=O)NC3=O)C5=O)CC2)C1` (stereo not drawn) [CP-035, 6-(4-(5-acetyl-3-(7-(difluoromethyl)-6-(1-methyl-1H-pyrazol-4-yl)-3,4-dihydroquinolin-1(2H)-yl)-4,5,6,7-tetrahydro-1H-pyrazolo[4,3-c]pyridin-1-yl)cyclohexane-1-carbonyl)-2-(2,6-dioxopiperidin-3-yl)-5,6,7,8-tetrahydro-1H-pyrrolo[3,4-g]isoquinoline-1,3(2H)-dione], the “CBP Degradation (22Rv1, 5 h) DCmax” value at CBP is “+ (>50% =)”. This molecule also registered a 50% degradation concentration (DC50) on CBP of less than 100 nM. The figures for the half-maximal inhibitory concentration (IC50) in the test with HL60 (HL60 cells) and with 22Rv1 cells were less than 1000 nM and less than 10000 nM, respectively.
Turning to `CC(=O)N1CCc2c(c(N3CCCc4cc(-c5cnn(C)c5)c(C(F)F)cc43)nn2C2CCC(C(=O)N3CCc4cc5c(cc4C3)C(=O)N(C3CCC(=O)NC3=O)C5=O)CC2)C1` (stereo not drawn) [CP-036, 6-(4-(5-acetyl-3-(7-(difluoromethyl)-6-(1-methyl-1H-pyrazol-4-yl)-3,4-dihydroquinolin-1(2H)-yl)-4,5,6,7-tetrahydro-1H-pyrazolo[4,3-c]pyridin-1-yl)cyclohexane-1-carbonyl)-2-(2,6-dioxopiperidin-3-yl)-5,6,7,8-tetrahydro-1H-pyrrolo[3,4-g]isoquinoline-1,3(2H)-dione], on CBP, the “CBP Degradation (22Rv1, 5 h) DCmax” value is listed as “+++ (>90% = +++)” and the 50% degradation concentration (DC50) was less than 10 nM. For the same molecule, the IC50 in the test on HL60 (HL60 cells) is less than 100 nM. Also, the 50% inhibitory concentration (IC50) in the test with 22Rv1 cells is less than 1000 nM.
In the case of `CCC(=O)N1CCc2c(c(N3CCCc4cc(-c5cnn(C)c5)c(C(F)F)cc43)nn2C2CCN(C(=O)CN3Cc4cc5c(cc4C3)C(=O)N(C3CCC(=O)NC3=O)C5=O)CC2)C1` (stereo not drawn) [CP-055, 6-(2-(4-(3-(7-(difluoromethyl)-6-(1-methyl-1H-pyrazol-4-yl)-3,4-dihydroquinolin-1(2H)-yl)-5-propionyl-4,5,6,7-tetrahydro-1H-pyrazolo[4,3-c]pyridin-1-yl)piperidin-1-yl)-2-oxoethyl)-2-(2,6-dioxopiperidin-3-yl)-6,7-dihydropyrrolo[3,4-f]isoindole-1,3(2H,5H)-dione], on CBP, the Dmax was greater than 70% and the half-maximal degradation concentration (DC50) was less than 10 nM. For the same molecule, in the test on HL60 (setting [1]), the concentration for half-maximal inhibition (IC50) was less than 1000 nM. Further, the 50% inhibitory concentration (IC50) in the test with 22Rv1 cells (Homo sapiens, 22Rv1, 96 h) is less than 1000 nM.
With `CC(=O)N1CCc2c(c(N3CCCc4cc(-c5cnn(CCCCCN6Cc7cc8c(cc7C6)C(=O)N(C6CCC(=O)NC6=O)C8=O)c5)c(C(F)F)cc43)nn2C2CCOCC2)C1` (stereo not drawn) [CP-067, 6-(5-(4-(1-(5-acetyl-1-(tetrahydro-2H-pyran-4-yl)-4,5,6,7-tetrahydro-1H-pyrazolo[4,3-c]pyridin-3-yl)-7-(difluoromethyl)-1,2,3,4-tetrahydroquinolin-6-yl)-1H-pyrazol-1-yl)pentyl)-2-(2,6-dioxopiperidin-3-yl)-6,7-dihydropyrrolo[3,4-f]isoindole-1,3(2H,5H)-dione], at CBP, the Dmax is greater than 90% and the half-maximal degradation concentration (DC50) is less than 10 nM. In addition, in the test on HL60 (setting [1]), the concentration for half-maximal inhibition (IC50) was less than 100 nM. Besides, the IC50 in the test with 22Rv1 cells (Homo sapiens, 22Rv1, 96 h) was less than 100 nM.

These data come from patent publication US20240150360A1 (THE REGENTS OF THE UNIVERSITY OF MICHIGAN, priority 2021, published 2024).
